In patent publication US7772270B2, “Imino acid derivatives as inhibitors of matrix metalloproteinases” (sanofi-aventis Deutschland GmbH, priority 2003, dated 2010):
pIC50: −log10 of the molar value.

What was measured:
[1] = target: T1, catalytic domain of human stromelysin (MMP-3) (Homo sapiens, UniProt P08254); assay: Enzymatic activity of the catalytic domain of human stromelysin (MMP-3), fluorogenic substrate; assay type: biochemical; conditions: 15 min preincubation, pH 7.5, fluorescence 328/393 nm
T1 construct: enzymatic activity of the catalytic domain of human stromelysin (MMP-3); made in house
T1 sequence (P08254 100-272 limits assumed): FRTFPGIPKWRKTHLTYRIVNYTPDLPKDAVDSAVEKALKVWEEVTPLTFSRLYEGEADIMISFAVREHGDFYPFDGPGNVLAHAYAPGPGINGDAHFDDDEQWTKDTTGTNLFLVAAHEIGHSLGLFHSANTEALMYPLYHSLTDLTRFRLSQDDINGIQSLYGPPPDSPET
Protocol: (§1) The two enzymes, i.e., stromelysin (MMP-3) and neutrophilic collagenase (MMP-8), were prepared as described in Ye et al. (Biochemistry; 31 (1992) pages 11231-11235). For measuring enzymatic activity or the effect of an enzyme inhibitor, 70 μl of buffer solution and 10 μl of enzyme solution are incubated, for 15 minutes and at a physiological pH, with 10 μl of a 10% (v/v) aqueous solution of dimethyl sulfoxide containing the enzyme inhibitor, where appropriate. After 10 μl of a 10% (v/v) aqueous solution of dimethyl sulfoxide containing 1 mmol of the substrate/l have been added, the enzyme reaction is monitored by fluorescence spectroscopy (328 nm (ex)/393 nm(em)).
(§2) The enzyme activity is recorded as increase in […]/minute. The IC50 values listed in table 2 are determined as the inhibitor concentrations that in each case lead to 50% inhibition of the enzyme.
(§3) The buffer solution contains 0.05% Brij (Sigma, Deisenhofen, Germany) and also 0.1 mol of Tris/HCl/l, 0.1 mol of NaCl/l, 0.01 mol of CaCl2/l and 0.1 mol of piperazine-N,N′-bis[2-ethanesulfonic acid]/l (pH=7.5). The enzyme solution contains 5 μg/ml of one of the enzyme domains prepared as described in Ye et al. The substrate solution contains 1 mmol of the fluorogenic substrate (7-methoxycoumarin-4-yl)acetyl-Pro-Leu-Gly-Leu-3-(2′,4′-dinitrophenyl)-L-2,3-diaminopropionyl-Ala-Arg-NH2/A (Bachem, Heidelberg, Germany).

[2] = target: T2, catalytic domain of human neutrophilic collagenase (MMP-8) (Homo sapiens, UniProt P22894); assay: Enzymatic activity of the catalytic domain of human neutrophilic collagenase (MMP-8), fluorogenic substrate; assay type: biochemical; conditions: 15 min preincubation, pH 7.5, fluorescence 328/393 nm
T2 construct: catalytic domain of human stromelysin (MMP-3) and neutrophilic collagenase (MMP-8); made in house
T2 sequence (P22894 100-262 limits assumed): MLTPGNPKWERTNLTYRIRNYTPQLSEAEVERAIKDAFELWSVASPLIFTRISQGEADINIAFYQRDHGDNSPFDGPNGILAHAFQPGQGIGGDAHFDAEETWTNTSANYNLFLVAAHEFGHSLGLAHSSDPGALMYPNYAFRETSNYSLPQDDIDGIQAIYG
Protocol: as §1, §2, §3

pIC50 [1] | pIC50 [2] | Structure (SMILES)
6.80 | 8.40 | O=C(O)[C@H]1C[C@H]2CCC[C@H]2N1S(=O)(=O)c1ccc(-c2ccc(N3CCCC3)cc2)cc1 [Example 21]
7.00 | 7.70 | O=C(NO)[C@H]1C[C@H]2CCC[C@H]2N1S(=O)(=O)c1ccc(-c2ccccc2)cc1 [Example 64]
7.66 | 8.52 | O=C(NO)[C@H]1C[C@H]2CCC[C@H]2N1S(=O)(=O)c1ccc(-c2ccc([N+](=O)[O-])cc2)cc1 [Example 61]

More lines, now with the values behind:

Structure (SMILES) | pIC50 [1] | pIC50 [2]
O=C(NO)[C@H]1C[C@H]2CCC[C@H]2N1S(=O)(=O)/C=C/c1ccccc1 [Example 57] | 6.48 | 6.49
O=C(NO)C1C[C@H]2CCC[C@H]2N1S(=O)(=O)c1ccc(-c2ccc(N3CCN(c4ccc(F)cc4)CC3)cc2)cc1 (single isomer, unassigned) [Example 63] | 6.70 | 5.43
O=C(O)C1C[C@H]2CCC[C@H]2N1S(=O)(=O)CCc1ccc(-c2ccc(Br)cc2)cc1 (stereo partly shown) [Example 13] | 6.70 | 6.70
O=C(NO)C1C[C@H]2CCC[C@H]2N1S(=O)(=O)c1ccc(I)cc1 (single isomer, unassigned) [Example 65] | 6.52 | 7.00
O=C(O)[C@H]1C[C@H]2CCC[C@H]2N1S(=O)(=O)c1ccc(-c2ccc(N3CCN(c4ccc(F)cc4)CC3)cc2)cc1 [Example 29] | < 5.00 | 5.00
